Experimental data: publication PMC8292346, “Dysfunction of the key ferroptosis-surveilling systems hypersensitizes mice to tubular necrosis during acute kidney injury” (Nature Communications, 2021)
Values joined by “and” are separate entries in the source; they are usually repeats but may differ in a detail not shown here. Identical values can stand only once. Like-named read-outs stand apart in the source and are kept apart here.

Columns and labels:
[1] = test system: CD10-135 cells; experiment: FINs/ferroptocide, LDH release assay; format: cell-based, human; parameters: LDH release: unit not given here; conditions: Nec-1f 30 µM
[2] = test system: NIH3T3 cells; experiment: Ferroptosis inducers (FINs)/ferroptocide, 7-AAD/annexin V flow cytometry; format: cell-based, murine; conditions: NIH3T3, 10 µM FIN56 24 h, alone (DMSO) or with Fer-1 1 µM, Nec-1s 30 µM, Nec-1f 30 µM
Description: (§1) To induce necroptosis in a human cell line, HT29 cells were stimulated at the indicated time points with 20 ng/ml human TNFα (Biolegend), 1 μM SMAC-mimetics (Birinapant, Chemietek), and 20 μM zVAD-fmk (Selleckchem, herein referred to as zVAD). For the induction of necroptosis in NIH3T3 cells, cells were incubated with 20 ng/ml TNF-α and 20 μM zVAD for indicated time points. […] Cells were seeded in six-well plates or petri dishes. […] After indicated time points, cells were collected and prepared for flow cytometry, immunoblotting, and/or LDH release assays.
(§2) Cells were harvested and the pellets were washed twice in PBS and stained with 5 μl of 7-AAD (BD Biosciences) and 5 μl of annexin-V-FITC (BD Biosciences) added to 100 μl annexin-V binding buffer (BD Biosciences). After 15 min, cells were recorded on the LSRII with the FACS Diva 6.1.1 software (BD Biosciences) and subsequently analyzed with the FlowJo v10 software (Tree Star).

[3] = test system: HT1080 cells; experiment: CellTiter-Glo luminescent cell viability assay (ATP), dose-response; format: cell-based, human
Description: Cells were plated in an opaque-walled 96-well plate and treatment with ferroptosis inducers and/or ferroptosis inhibitors was initiated 24 h later. […] Here, the reaction agent was directly added to the wells, mixed on an orbital shaker for 2 min, and then incubated at room temperature for 10 min. The luminescence was detected using a Promega GloMax® instrument.

[4] = test system: HT1080 cells; experiment: Ferroptosis inducers (FINs)/ferroptocide, 7-AAD/annexin V flow cytometry; format: cell-based, human
[5] = test system: Mouse cortical tubule cells (MCT); experiment: FINs/ferroptocide, 7-AAD/annexin V flow cytometry; format: cell-based; conditions: MCT, alone (DMSO) or with Fer-1 1 µM, Nec-1s 30 µM, Nec-1f 30 µM
Description: as §1, §2

[6] = test system: primary murine tubular cells; experiment: RSL3-induced LDH release of primary kidney tubular cells; format: cell-based; conditions: primary kidney tubular cells, RSL3 14 h, alone (DMSO) or with Fer-1 or Nec-1f 30 µM
Description: The LDH release of cells or of freshly isolated kidney tubules was measured according to manufacturers’ instructions at indicated time points. In brief, an aliquot of the supernatant was taken and Lysis Solution was added for 45 min to induce maximal LDH release before another aliquot of the supernatant was taken. Subsequently, the supernatants were incubated with CytoTox 96® Reagent for 15 min protected from light at room temperature before adding Stop Solution. Absorbance was measured at 490 nm.
Generation, cell culture, and induction of cell death in primary murine tubular cells. Murine tubular cells were generated by outgrowth from isolated renal tubules (see above). Primary murine tubules were placed in six-well plates containing Dulbecco’s Modified Eagle Medium F-12 Nutrient Mixture without phenol red (DMEM/F12, Thermo Fisher), supplemented with 0.01 mg/ml recombinant human insulin, 5.5 μg/ml human transferrin, 0.005 μg/ml Na2SeO3 (ITS without linoleic acid, Sigma Aldrich), 50 nM hydrocortisone, 100 U/ml penicillin, and 100 μg/ml streptomycin (Pen/Strep, Thermo Fisher). After two days, the outgrown primary murine tubular cells were washed with PBS and a fresh medium was added. When the number of primary murine tubular cells reached approximately 50% confluence, the cells were removed from the six-well plates using Trypsin-EDTA (Thermo Fisher), washed with medium and a Ficoll Paque Plus (Sigma Aldrich) gradient was performed to remove any dead cells, and debris from the murine renal tubules. Cells were washed twice with PBS and seeded in six-well plates with medium. Once the number of grown cells reached approximately 50% confluence, they were washed with PBS and treated with type 2 FIN: RSL3 (also see Supplementary Table 2 for details). After 14 h, medium and cells were collected and prepared for LDH release assay. Images of the treated primary murine tubular cells were obtained using a 20×/0.30 PH1 objective on a Leica DMi1 microscope.

[7] = both, microsomes, 2 µM, pH 7.4
[8] = test system: NIH3T3 cells; experiment: Ferroptosis inducers (FINs)/ferroptocide, 7-AAD/annexin V flow cytometry; format: cell-based, murine; conditions: NIH3T3, 5 µM erastin 24 h, alone (DMSO) or with Fer-1 1 µM, Nec-1s 30 µM, Nec-1f 30 µM
[9] = Stability in human plasma; format: in vitro ADME; conditions: 1 µM, 37 °C
Description: Plasma stability is defined as the percentage of parent compound remaining in plasma over the time. Here, incubations were carried out in 5 aliquots of 70 µl each (one for each time point), in duplicates. […] The percentage of the test compounds remaining after incubation in plasma and their half-lives (T1/2) was calculated.

Which results are given for O=S(=O)(NC1CCCCC1)c1ccc2c(c1)C(=NO)c1cc(S(=O)(=O)NC3CCCCC3)ccc1-2 [FIN56]?
LDH release ([1]; CD10-135, FIN56 alone (FIN) or with Fer-1, Nec-1s): 81.45 and 58.7091 and 60.5407; double-negative events (7-AAD/annexin V) [2]: 87.6% and 95% and 90.3%; ATP luminescence (CellTiterGlo) ([3]; HT1080, inducer at 0.01 µM): 100%; ATP luminescence (CellTiterGlo) ([3]; HT1080, inducer at 0.1 µM): 100%; ATP luminescence (CellTiterGlo) ([3]; HT1080, inducer at 0.5 µM): 100%; ATP luminescence (CellTiterGlo) ([3]; HT1080, inducer at 1 µM): 100%; Induction of ferroptosis ([4]; HT1080): does not effectively drive ferroptosis; double-negative events (7-AAD/annexin V) ([4]; HT1080, 10 µM FIN56 24 h, alone (DMSO) or with Fer-1 1 µM, Nec-1s 30 µM, Nec-1f 30 µM): 85.5% and 85.1% and 86%; double-negative events (7-AAD/annexin V) ([4]; HT1080, FIN56 10 µM, 24 h): 95% and 96% and 94%; double-negative events (7-AAD/annexin V) ([4]; HT1080, FIN56 10 µM, 48 h): 92% and 90% and 74%; double-negative events (7-AAD/annexin V) ([4]; HT1080, FIN56 20 µM, 24 h): 92% and 93%; double-negative events (7-AAD/annexin V) ([4]; HT1080, FIN56 20 µM, 48 h): 93% and 92% and 89% and 71%; double-negative events (7-AAD/annexin V) ([4]; HT1080, FIN56 50 µM, 24 h): 85% and 92% and 93%; double-negative events (7-AAD/annexin V) ([4]; HT1080, FIN56 50 µM, 48 h): 83% and 87% and 78% and 65%; double-negative events (7-AAD/annexin V) ([4]; HT1080, FIN56 100 µM, 24 h): 85% and 86% and 80%; double-negative events (7-AAD/annexin V) ([5]; 10 µM FIN56 24 h): 96.5% and 90.7% and 88.5%

Which results are given for CC1(CCO)CC2(CCC(C(C)(C)C)CC2)OO1 (stereo not drawn) [FINO2]?
LDH release ([1]; CD10-135, FINO2 alone (FIN) or with Fer-1, Nec-1s): 73.83 and 38.4304 and 67.2452; ATP luminescence (CellTiterGlo) ([3]; HT1080, inducer at 0.01 µM): 100%; ATP luminescence (CellTiterGlo) ([3]; HT1080, inducer at 0.1 µM): 100%; ATP luminescence (CellTiterGlo) ([3]; HT1080, inducer at 0.5 µM): 100%; ATP luminescence (CellTiterGlo) ([3]; HT1080, inducer at 1 µM): 100% and 53.72%; ATP luminescence (CellTiterGlo) ([3]; HT1080, inducer at 50 µM): 0.7403% and 0.06%; ATP luminescence (CellTiterGlo) ([3]; HT1080, inducer at 100 µM): 0% and 0.26% and 0.2% and 0.08%; ATP luminescence (CellTiterGlo) ([3]; HT1080, inducer at 200 µM): 0% and 0.3058% and 0.04%

With COC(=O)c1ccc([C@@H]2c3[nH]c4ccccc4c3C[C@@H](C(=O)OC)N2C(=O)CCl)cc1 [RSL3] as the molecule, how does the LDH release [6] read?
The LDH release was 91.18% and 51.15% and 48.12% and 50.73% and 54.44%.

And the LDH release ([1]; CD10-135, RSL3 alone (FIN) or with Fer-1, Nec-1s)?
Its LDH release is 53.16 and 45.5353.

And the “ATP luminescence (CellTiterGlo)” value ([3]; HT1080, inducer at 0.01 µM)?
Its value is 100%.

And the “ATP luminescence (CellTiterGlo)” value ([3]; HT1080, inducer at 0.1 µM)?
The value was 100%.

And the “ATP luminescence (CellTiterGlo)” value ([3]; HT1080, inducer at 0.113 µM)?
Its value is 100%.

And the “ATP luminescence (CellTiterGlo)” value ([3]; HT1080, inducer at 0.5 µM)?
The value was 30.56% and 28.07% and 28.8%.

And the “ATP luminescence (CellTiterGlo)” value ([3]; HT1080, inducer at 1 µM)?
Its value is 18.36% and 19.43% and 14.93%.

And the “ATP luminescence (CellTiterGlo)” value ([3]; HT1080, inducer at 1.13 µM)?
Its value is 55.71% and 77.56% and 64%.

What about the “ATP luminescence (CellTiterGlo)” value ([3]; HT1080, inducer at 5 µM) of the same molecule?
The value was 11.16% and 17.99% and 22.07%.

What about the “double-negative events (7-AAD/annexin V)” value ([4]; HT1080, 1.13 µM RSL3 6 h, alone (DMSO) or with Fer-1 1 µM, Nec-1s 30 µM, Nec-1f 30 µM) of the same molecule?
Its value is 61% and 47.8% and 51.8% and 65.7%.

For O=C(O)Cc1ccccc1Nc1c(Cl)cccc1Cl [diclofenac, reference compound], which “Human microsomal stability, parent compound remaining” value ([7]; 0 h) is on record?
The value was 100%.

What about the “Human microsomal stability, parent compound remaining” value ([7]; 7 min) of the same molecule?
Its value is 62%.

And the “Human microsomal stability, parent compound remaining” value ([7]; 0.25 h)?
The value was 26%.

What about the “Human microsomal stability, parent compound remaining” value ([7]; 25 min) of the same molecule?
The value was 6%.

What about the “Human microsomal stability, parent compound remaining” value ([7]; 40 min) of the same molecule?
Its value is 2%.

Which LDH release ([1]; CD10-135, erastin alone (FIN) or with Fer-1, Nec-1s) does the source give for CCOc1ccccc1-n1c(C(C)N2CCN(C(=O)COc3ccc(Cl)cc3)CC2)nc2ccccc2c1=O (stereo not drawn) [erastin] here?
Its LDH release is 92.68 and 85.398 and 91.0128.

What about the “ATP luminescence (CellTiterGlo)” value ([3]; HT1080, inducer at 0.01 µM) of the same molecule?
The value was 100%.

What about the “ATP luminescence (CellTiterGlo)” value ([3]; HT1080, inducer at 0.1 µM) of the same molecule?
The value was 100%.

And the “ATP luminescence (CellTiterGlo)” value ([3]; HT1080, inducer at 0.5 µM)?
The value was 90.0281% and 100%.

And the “ATP luminescence (CellTiterGlo)” value ([3]; HT1080, inducer at 1 µM)?
The value was 57.4401% and 100%.

What about the “ATP luminescence (CellTiterGlo)” value ([3]; HT1080, inducer at 100 µM) of the same molecule?
The value was 3.949%.

What about the “ATP luminescence (CellTiterGlo)” value ([3]; HT1080, inducer at 200 µM) of the same molecule?
The value was 12.3673% and 20.98%.

What about the “double-negative events (7-AAD/annexin V)” value ([5]; 5 µM erastin 24 h) of the same molecule?
Its value is 51.9% and 85.2% and 80.4% and 71%.

And the “double-negative events (7-AAD/annexin V)” value [8]?
The value was 10.4% and 3.36% and 6.36% and 2.66%.

What does the source list for C[C@@H]1CC[C@@]23C[C@H](O)C(=O)[C@@]2(O)[C@]1(C)[C@H](OC(=O)CCl)C[C@@H](C1=CCn2c(=O)n(-c4ccccc4)c(=O)n2C1)[C@@H]3C [ferroptocide]?
LDH release ([1]; CD10-135, ferroptocide alone (FIN) or with Fer-1, Nec-1s): 93.9 and 97.7396; ATP luminescence (CellTiterGlo) ([3]; HT1080, inducer at 0.01 µM): 100%; ATP luminescence (CellTiterGlo) ([3]; HT1080, inducer at 0.1 µM): 100%; ATP luminescence (CellTiterGlo) ([3]; HT1080, inducer at 0.5 µM): 67.8646% and 100%; ATP luminescence (CellTiterGlo) ([3]; HT1080, inducer at 50 µM): -0.02481% and 0.12%; ATP luminescence (CellTiterGlo) ([3]; HT1080, inducer at 100 µM): 0% and 0.4% and -1.103% and 0.1%; ATP luminescence (CellTiterGlo) ([3]; HT1080, inducer at 200 µM): 0% and -0.7765% and 0.13%

For CC(C)[N+](C)(CCOC(=O)C1c2ccccc2Oc2ccccc21)C(C)C [propantheline, reference compound], which “Human plasma stability, parent compound remaining” value ([9]; 0 min) is on record?
Its value is 100%.

What about the “Human plasma stability, parent compound remaining” value ([9]; 20 min) of the same molecule?
The value was 65%.

And the “Human plasma stability, parent compound remaining” value ([9]; 40 min)?
The value was 31%.

And the “Human plasma stability, parent compound remaining” value ([9]; 60 min)?
The value was 16%.

And the “Human plasma stability, parent compound remaining” value ([9]; 120 min)?
The value was 2%.
